Data taken from the NIST ThermoML archive (doi:10.1021/je7003098).

Details: for mass density: 101.33 kPa, Liquid, Pycnometric method; for surface tension liquid-gas: Ring tensiometer

CCCC[N+](C)(C)C.O=S(=O)([N-]S(=O)(=O)C(F)(F)F)C(F)(F)F [butyltrimethylammonium bis(trifluoromethylsulfonyl)imide]
Details	mass density [kg/m3]	surface tension liquid-gas [mN/m]
298.15 K	1374.7	–
298.35 K	–	38.05
302.33 K	–	37.9
303.15 K	1368.6	–
306.15 K	–	37.8
308.15 K	1365.6	–
309.93 K	–	37.69
313.15 K	1361.4	–
314.79 K	–	37.48
318.15 K	1357.3	–
320.39 K	–	37.28
323.15 K	1353.7	–
326.4 K	–	37.09
328.15 K	1349.7	–
330.16 K	–	36.91
333.15 K	1343.9	–
335.64 K	–	36.68
340.58 K	–	36.5

CCCCCC[N+](C)(C)C.O=S(=O)([N-]S(=O)(=O)C(F)(F)F)C(F)(F)F [hexyltrimethylammonium bis[(trifluoromethyl)sulfonyl]imide]
Details	mass density [kg/m3]	surface tension liquid-gas [mN/m]
298.15 K	1310.6	–
300.35 K	–	35.88
302.35 K	–	35.71
303.15 K	1307.8	–
304.25 K	–	35.57
307.65 K	–	35.32
308.15 K	1304	–
311.05 K	–	35.09
313.15 K	1299.5	–
314.75 K	–	34.86
318.15 K	1295.7	34.64
322.55 K	–	34.36
323.15 K	1292.1	–
326.25 K	–	34.14
328.15 K	1287.9	–
331.35 K	–	33.86
333.15 K	1283.9	–
333.35 K	–	33.77

CCCCCCCCCCCCCC[P+](CCCCCC)(CCCCCC)CCCCCC.N#C[N-]C#N [tetradecyl(trihexyl)phosphonium dicyanamide]
Details	mass density [kg/m3]	surface tension liquid-gas [mN/m]
295.06 K	–	35.22
298.15 K	920.9	–
299.35 K	–	34.85
302.95 K	–	34.58
303.15 K	917.3	–
305.04 K	–	34.45
308.15 K	916.3	–
310.4 K	–	34.06
313.15 K	913.1	–
314.39 K	–	33.8
318.15 K	910.1	–
318.38 K	–	33.5
322.47 K	–	33.24
323.15 K	907.5	–
326.14 K	–	32.94
327.42 K	–	32.61
328.15 K	905	–
333.02 K	–	32.2
333.15 K	902.4	–
338.6 K	–	31.66
343.13 K	–	31.33
348.47 K	–	31.09

CCCCCCCCCCCCCC[P+](CCCC)(CCCC)CCCC.CCCCCCCCCCCCc1ccccc1S(=O)(=O)[O-] [tributyl(tetradecyl)phosphonium 2-dodecylbenzenesulfonate]
Details	mass density [kg/m3]
298.15 K	938.4
303.15 K	937.1
308.15 K	933.7
313.15 K	931.1
318.15 K	928.4
323.15 K	925.4
328.15 K	922.8
333.15 K	920.1

CCCC[P+](CC)(CCCC)CCCC.CCOP(=O)([O-])OCC [tributylethylphosphonium diethylphosphate]
Details	mass density [kg/m3]	surface tension liquid-gas [mN/m]
296.66 K	–	33.6
298.15 K	997.8	–
302.18 K	–	33.29
303.15 K	995.7	–
307.24 K	–	33.14
308.15 K	992.8	–
312.34 K	–	32.82
313.15 K	989.7	–
318.15 K	985.8	–
318.36 K	–	32.24
323.15 K	982.6	–
323.59 K	–	31.62
328.15 K	979.5	–
329.67 K	–	31.14
333.15 K	975.8	–
336.36 K	–	30.66
343.4 K	–	30.15
347.75 K	–	29.82
350.86 K	–	29.59

CCCCCC[N+](CC)(CC)CC.O=S(=O)([N-]S(=O)(=O)C(F)(F)F)C(F)(F)F [triethylhexylammonium bis((trifluoromethyl)sulfonyl)imide]
Details	mass density [kg/m3]	surface tension liquid-gas [mN/m]
298.15 K	1279.3	–
299.54 K	–	35.17
302.65 K	–	34.9
303.15 K	1275.4	–
307.05 K	–	34.45
308.15 K	1271.9	–
313.15 K	1267.6	–
313.73 K	–	33.88
318.15 K	1264.4	–
319.84 K	–	33.49
323.15 K	1260.8	–
324.94 K	–	32.98
328.15 K	1257.4	–
329.34 K	–	32.72
333.15 K	1253	–
335.04 K	–	32.47
341.93 K	–	31.98
347.11 K	–	31.45

CCCCCCCCCCCCCC[P+](CCCCCC)(CCCCCC)CCCCCC.[Cl-] [trihexyl(tetradecyl)phosphonium chloride]
Details	mass density [kg/m3]	surface tension liquid-gas [mN/m]
297.99 K	–	33.62
298.15 K	882.6	–
302.94 K	–	33.15
303.15 K	880.1	–
307.4 K	–	32.72
308.15 K	877.9	–
312.09 K	–	32.3
313.15 K	875.4	–
315.84 K	–	32.01
318.15 K	873.1	–
319.49 K	–	31.74
323.15 K	869.4	–
323.95 K	–	31.43
327.96 K	–	31.15
328.15 K	866.9	–
332.81 K	–	30.76
333.15 K	864.4	–
337.27 K	–	30.42
342.09 K	–	30
347.68 K	–	29.55
